Measurements as given in patent US9340535B2, “N-[5-(Aminosulfony1)-4-methyl-1,3-thiazol-2-yl]-N-methyl-2-[4-(2-pyridinyl)phenyl]acetamide mesylate monohydrate” (AiCuris GmbH & Co. KG, priority 2011, dated 2016).
In brackets after ≈: the same amount, converted by molar mass. Where two headings read alike, the source gives them in different places.

Key:
[1] = Crystallinity by X-ray diffraction, microscopy; format: physicochemical; settings: for Crystallinity: X-ray diffraction, microscopy
[2] = Thermal analysis and polymorphic stability (DSC, TGA); format: physicochemical; settings: for DSC: Differential Scanning Calorimetry; for TGA: Thermogravimetric Analysis
Procedure: Polymorphism refers to the ability of a solid material to exist in more than one crystal structure or solid form.
Upon mild heating (about 50° C. to 60° C.), the water content is reduced which would make these salts and the free base form extremely difficult to handle and to process during production and formulation. In contrast the hydrate of the mono mesylate salt is thermally stable and polymorphic stable at much higher temperatures of considerably above 100° C. as judged by TGA.
Moreover, exactly one mol equivalent water is incorporated into the crystal structure wherein the hydrogen atoms of the water molecule form hydrogen bridges with oxygen atoms of two different mesylate molecules. This well-defined position in the crystal lattice (see FIG. 3) is verified by the fact that water is released from the crystal only at high temperature, starting at 160° C.

[3] = Stability to dissociation: stirring for one week at room temperature
[4] = Water solubility, solubility screening; settings: for Water solubility: Solubility screening
[5] = Stability to decomposition: storage at 90° C. for one week
[6] = Exposure in repeated dose 13-week toxicity study (free base); settings: rat, in vivo, rats; for AUC(0-t): read-out: AUC(0-24)
Procedure: The exposure of rats to N-[5-(aminosulfonyl)-4-methyl-1,3-thiazol-2-yl]-N-methyl-2-[4-(2-pyridinyl)phenyl]acetamide in a repeated dose 13-week toxicity study performed with the free base N-[5-(aminosulfonyl)-4-methyl-1,3-thiazol-2-yl]-N-methyl-2-[4-(2-pyridinyl)phenyl]acetamide (free base) was compared to the exposures observed in a 26-week repeated dose toxicity study performed with the mesylate monohydrate. In both studies, the test items were administered as 0.5% (w/v) tylose suspensions, and the concentrations were adjusted to the equivalents of free base N-[5-(aminosulfonyl)-4-methyl-1,3-thiazol-2-yl]-N-methyl-2-[4-(2-pyridinyl)phenyl]acetamide.

[7] = female, 10 mg/kg/day, F, 10 mg/kg/day, day 1, 13-week toxicity study
[8] = female, 50 mg/kg/day, F, 50 mg/kg/day, day 1, 13-week toxicity study
[9] = female, 250 mg/kg/day, F, 250 mg/kg/day, day 1, 13-week toxicity study
[10] = male, 10 mg/kg/day, M, 10 mg/kg/day, day 1, 13-week toxicity study
[11] = male, 50 mg/kg/day, M, 50 mg/kg/day, day 1, 13-week toxicity study
[12] = male, 250 mg/kg/day, M, 250 mg/kg/day, day 1, 13-week toxicity study

Cc1nc(N(C)C(=O)Cc2ccc(-c3ccccn3)cc2)sc1S(N)(=O)=O.Cl [1xHCl]
Crystallinity of the hydrate during storage ([1]; during storage): decrease of crystallinity | Thermal and polymorphic stability of hydrates (in words) [2]: low thermal and low polymorphic stability | Thermal stability of hydrate [2]: labile | DSC [2]: loss of water before melting | TGA [2]: 2.1% | Stability to dissociation [3]: ++ | Water solubility [4]: 39.4 mg/100 mL | Stability to decomposition [5]: ++

Cc1ccc(S(=O)(=O)O)cc1.Cc1nc(N(C)C(=O)Cc2ccc(-c3ccccn3)cc2)sc1S(N)(=O)=O [1xTsOH]
Crystallinity [1]: + | Thermal stability of hydrate [2]: labile | DSC [2]: loss of water before melting | TGA [2]: 5.9% | Thermal and polymorphic stability of hydrates (in words) ([2]; listed as monotosylate): low thermal stability | Thermal and polymorphic stability of hydrates (in words) ([2]; listed as tosylate): low thermal and low polymorphic stability | Stability to dissociation [3]: ++ | Water solubility [4]: 50 mg/100 mL | Stability to decomposition [5]: −

Cc1nc(N(C)C(=O)Cc2ccc(-c3ccccn3)cc2)sc1S(N)(=O)=O [Free base, N-[5-(aminosulfonyl)-4-methyl-1,3-thiazol-2-yl]-N-methyl-2-[4-(2-pyridinyl)phenyl]acetamide]
Cmax [6, 7]: 15.3 µg/mL | AUC(0-t) [6, 7]: 159 µg·h/mL | AUC(0-t) ([6]; female, 10 mg/kg/day, F, 10 mg/kg/day, week 13, 13-week toxicity study): 211 µg·h/mL | Cmax ([6]; female, 10 mg/kg/day, F, week 13, 13-week toxicity study): 25.8 µg/mL | Cmax [6, 8]: 35.3 µg/mL | AUC(0-t) [6, 8]: 409 µg·h/mL | AUC(0-t) ([6]; female, 50 mg/kg/day, F, 50 mg/kg/day, week 13, 13-week toxicity study): 455 µg·h/mL | Cmax ([6]; female, 50 mg/kg/day, F, week 13, 13-week toxicity study): 40.5 µg/mL | Cmax [6, 9]: 68.9 µg/mL | AUC(0-t) [6, 9]: 966 µg·h/mL | AUC(0-t) ([6]; female, 250 mg/kg/day, F, 250 mg/kg/day, week 13, 13-week toxicity study): 1170 µg·h/mL | Cmax ([6]; female, 250 mg/kg/day, F, week 13, 13-week toxicity study): 83 µg/mL | Cmax [6, 10]: 13.3 µg/mL | AUC(0-t) [6, 10]: 87.9 µg·h/mL | AUC(0-t) ([6]; male, 10 mg/kg/day, M, 10 mg/kg/day, week 13, 13-week toxicity study): 133 µg·h/mL | Cmax ([6]; male, 10 mg/kg/day, M, week 13, 13-week toxicity study): 15 µg/mL | Cmax [6, 11]: 30.6 µg/mL | AUC(0-t) [6, 11]: 248 µg·h/mL | AUC(0-t) ([6]; male, 50 mg/kg/day, M, 50 mg/kg/day, week 13, 13-week toxicity study): 332 µg·h/mL | Cmax ([6]; male, 50 mg/kg/day, M, week 13, 13-week toxicity study): 30 µg/mL | Cmax [6, 12]: 53.9 µg/mL | AUC(0-t) [6, 12]: 567 µg·h/mL | AUC(0-t) ([6]; male, 250 mg/kg/day, M, 250 mg/kg/day, week 13, 13-week toxicity study): 661 µg·h/mL | Cmax ([6]; male, 250 mg/kg/day, M, week 13, 13-week toxicity study): 62.8 µg/mL | Crystallinity [1]: + | Thermal and polymorphic stability of hydrates (in words) [2]: low thermal stability | Thermal stability of hydrate [2]: labile | DSC [2]: loss of water before melting | TGA [2]: 8.8% | Thermal and polymorphic stability of hydrates (in words) ([2]; listed as free base form): low thermal and low polymorphic stability | solubility ([4]; water): 2 µg/mL (≈ 4.97 µM) | Stability to decomposition [5]: ++
